Results as given in patent publication US12491185B2, “Inhibitors of mPTP” (NRG Therapeutics Ltd, priority 2023, dated 2025).

Key:
[1] = tested on: mPTP; test: mPTP activity (Ca2+ retention) assay in isolated rat liver mitochondria; format: biochemical; settings: examples tested by different contract research organisations, believed comparable
How it was run: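 pIC50 was taken from Fluo5N fluorescence at 10 min after a 75 μM CaCl2 bolus, scaled between DMSO (0%) and 5 μM cyclosporin A (100%). Compounds, ten half-log concentrations from 30 μM to 1 nM final, sat 10 min at RT with fresh female Sprague Dawley rat liver mitochondria energized by succinate plus rotenone.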

[2] = tested on: mPTP; test: Human platelet mitochondria assay (annexin V / PS exposure by flow cytometry); format: cell-based; settings: human blood platelets stimulated with thrombin/convulxin/calcium; % AnV-APC positive platelets
Experimental: The mPTP cell based assay was performed using a transformative functional cell-(human blood platelets)-based assay by flow cytometry. Procoagulant platelets expose phosphatidylserine (PS), allowing a burst of thrombin generation that is responsible for producing an occlusive thrombus. While an increase in cytosolic Ca^2+ concentration is required for deriving platelets to become activated, a higher and more sustained increases in cytosolic Ca^2+ concentration is needed to commit some platelets to becoming procoagulant. Simulation of platelets results in the rapid influx of Ca^2+ across the platelet membrane. The Ca^2+ is then sequestered by mitochondria until the threshold for mPTP opening is reached, at which point the pore opens and the mitochondrial membrane potential is dissipated. mPTP opening and subsequent disruption in mitochondrial membrane potential leads to release of a high concentration of calcium stored in mitochondria into the platelet's cytosol (“supramaximal calcium signal” [1]) which is known to be a requisite initiating signal transduction leading to externalisation of procoagulant PS to the outer leaflet of platelets' plasma membrane. PS externalisation of stimulated platelets can be quantified in live platelets using standard annexin V (AnV) labelling by flow cytometry, enabling pharmacological characterisation of mPTP inhibitors.
Fresh human blood (9 ml) was collected from consenting donors into 3.2% sodium citrate. Acid citrate dextrose (85 mM tri-sodium citrate, 71 mM citric acid, and 111 mM D-glucose) was added (1:7 vol/vol) and platelet-rich plasma was separated by centrifugation (200 g, 10 minutes, ambient temperature, and without any brake). Platelets were pelleted by centrifugation (600 g, 10 minutes, ambient temperature) in the presence of prostaglandin E1 (100 nM) and apyrase (0.02 U/mL). Pelleted platelets were resuspended in N-2-hydroxyethylpiperazine-N′-2-ethanesulfonic acid (HEPES)-buffered saline supplemented with D-glucose (135 mM NaCl, 10 mM HEPES, 3 mM KCl, 1 mM MgCl2, 0.34 mM NaH2PO4, 5 mM D-glucose, 0.1% bovine serum albumin, pH 7.4.) and apyrase (0.02 U/mL). Platelets were rested for 30 minutes at 30° C. before treatment protocols were initiated.
Test compounds were prepared from 10 mM stocks in DMSO. Serial dilution of search test compounds stamped in duplicate into a 96 well plate using Multidrop Pico 8 Digital Dispenser. Platelets were loaded and incubated for 30 min at room temperature. Then a stimulation mix containing Thrombin (FAC: 0.5 U/ml)/Convulxin (FAC: 0.05 μg/ml)/Calcium (FAC: 2 mM) added per well except control/not stimulated wells (This is low signal control). Some wells received no treatment but DMSO vehicle control and used as high signal controls (FAC of DMSO set at 0.1% in all wells of the 96 well plate). The reaction mix incubated for 10 min at room temperature. During last 2 min of stimulation AnV-APC was added to detect surface PS exposure. Samples ten fixed and fluorescence was detected by MACSQuant X flow cytometry and 10 000 platelet events were collected. The percentage of AnV-APC positive platelets was calculated for each well. IC50 for each compound was then calculated using a standard four parameter curve fit model (GraphPad Prism).

[3] = tested on: mPTP; test: mPTP activity assay in isolated rat brain mitochondria; format: biochemical; settings: fluorescence at 10 min timepoint
How it was run: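 Fresh brain mitochondria from female Sprague Dawley rats, digitonin-washed, in pH 7.4 mannitol/MOPS/KCl buffer with pyruvate, malate, ADP, oligomycin A and 2 μM Fluo5N. Preincubated with compounds 10 min at RT. Fluo5N fluorescence then read every 3 sec for 10 min on FLIPR Tetra.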

mPTP Rat liver pIC50 [1]	mPTP Rat brain pIC50 [3]	Compound	pIC50 [2]
7.08	7.61	Cn1nc(C(=O)NC[C@H](Cc2ccc(F)c(F)c2)C2CC2)[nH]c1=O [Example 150]	–
6.19	7.44	O=C(NCC1(Cc2ccc(F)cc2F)CCCC1)c1cncc(=O)[nH]1 [Example 152]	–
6.22	7.12	O=C(NC[C@H](Cc1cc(F)ccc1F)C1CC1)c1nccc(=O)[nH]1 [Example 153]	–
6.28	7.24	Cn1nc(C(=O)NCC2(Cc3ccc(F)c(F)c3F)CCC2)[nH]c1=O [Example 156]	–
7.03	7.81	Cn1nc(C(=O)NCC2(Cc3cc(F)c(F)cc3F)CCC2)[nH]c1=O [Example 157, 1-methyl-5-oxo-N-((1-(2,4,5-trifluorobenzyl)cyclobutyl)methyl)-4,5-dihydro-1H-1,2,4-triazole-3-carboxamide]	–
6.97	7.77	Cn1nc(C(=O)NC[C@H](Cc2cc(F)ccc2F)C2CC2)[nH]c1=O [Example 159]	–
6.28	7.7	O=C(NCC1(Cc2ccc(F)cc2F)CCC1)c1nccc(=O)[nH]1 [Example 160]	–
6.29	7.74	O=C(NCC1(Cc2cc(F)ccc2F)CCC1)c1cncc(=O)[nH]1 [Example 174]	–
5.92	6.81	O=C(NCC1(Cc2ccc(F)cc2F)CCC1)c1ccc(=O)[nH]n1 [Example 175]	–
5.85	6.65	O=C(NCC1(Cc2cccc(F)c2)CCC1)c1ccc(=O)[nH]n1 [Example 177]	–
5.66	6.91	CSc1ccccc1CC1(CNC(=O)c2nn(C)c(=O)[nH]2)CCC1 [Example 181]	–
6.47	7.42	CC[C@H](CNC(=O)c1nccc(=O)[nH]1)Cc1ccc(F)cc1F [Example 191]	–
6.37	7.43	O=C(NC[C@H](Cc1ccc(F)cc1F)C1CC1)c1nncc(=O)[nH]1 [Example 195, (R)-N-(2-cyclopropyl-3-(2,4-difluorophenyl)propyl)-5-oxo-4,5-dihydro-1,2,4-triazine-3-carboxamide]	–
6.48	7.66	O=C(NC[C@H](Cc1ccc(F)c(F)c1)C1CC1)c1noc(=O)[nH]1 [Example 203]	–
6.15	7.38	O=C(NCC1(Cc2ccc(F)cc2F)CCC1)c1noc(=O)[nH]1 [Example 205]	–
6.12	7.65	O=C(NC[C@H](Cc1cc(F)ccc1F)C1CC1)c1noc(=O)[nH]1 [Example 207]	–
5.15	6.21	CC(c1ccc(F)cc1F)[C@@H](CNC(=O)c1nn(C)c(=O)[nH]1)C1CC1 (some centres unmarked) [Example 238]	–
6.81	7.73	Cn1nc(C(=O)NC[C@H](Cc2ccc(F)cc2Cl)C2CC2)[nH]c1=O [Example 241, (R)-N-(3-(2-chloro-4-fluorophenyl)-2-cyclopropylpropyl)-1-methyl-5-oxo-4,5-dihydro-1H-1,2,4-triazole-3-carboxamide]	–
4.95	5.39	Cn1nc(C(=O)NC[C@@H](Cc2ccc(F)cc2Cl)C2CC2)[nH]c1=O [Example 242]	–
6.13	7.44	Cn1nc(C(=O)NC[C@H](Cc2ccc(F)cc2F)CC(F)(F)F)[nH]c1=O [Example 245, (R)-N-(2-(2,4-difluorobenzyl)-4,4,4-trifluorobutyl)-1-methyl-5-oxo-4,5-dihydro-1H-1,2,4-triazole-3-carboxamide]	–
4.56	5.85	Cn1nc(C(=O)NC[C@@H](Cc2ccc(F)cc2F)CC(F)(F)F)[nH]c1=O [Example 246]	–
–	–	O=C(NC[C@@H](Cc1ccc(F)cc1)C1CC1)c1nccc(=O)[nH]1 [Example 249]	6.52
6.46	8.22	C[C@@](CNC(=O)c1ncc(Cl)c(=O)[nH]1)(Cc1ccc(F)cc1F)C1CC1 [Example 259, 5-chloro-N-[(2R)-2-cyclopropyl-3-(2,4-difluorophenyl)-2-methylpropyl]-4-oxo-3H-pyrimidine-2-carboxamide]	–
5.78	7.50	C[C@](CNC(=O)c1ncc(Cl)c(=O)[nH]1)(Cc1ccc(F)cc1F)C1CC1 [Example 260, 5-chloro-N-[(2S)-2-cyclopropyl-3-(2,4-difluorophenyl)-2-methylpropyl]-4-oxo-3H-pyrimidine-2-carboxamide]	–
<4.57	<4.52	Cn1nc(C(=O)N2CCC(C)(c3ccccc3)C2)[nH]c1=O (centres unmarked) [Reference Example 101, 2-methyl-5-(3-methyl-3-phenylpyrrolidine-1-carbonyl)-2,4-dihydro-3H-1,2,4-triazol-3-one]	–
<4.57	<4.52	Cn1nc(C(=O)N2CCC(c3ccccc3)CC2)[nH]c1=O [Reference Example 115, 2-methyl-5-(4-phenylpiperidine-1-carbonyl)-2,4-dihydro-3H-1,2,4-triazol-3-one]	–
5.95	7.04	Cc1cnc(C(=O)NCC(C)(Cc2ccc(F)cc2F)C2CC2)[nH]c1=O (centres unmarked) [compound 266]	–

Compound	mPTP Rat liver pIC50 [1]	mPTP Rat brain pIC50 [3]	pIC50 [2]
CC(c1ccccc1)C1(CNC(=O)c2nn(C)c(=O)[nH]2)CCC1 (single isomer, unassigned) [Example 26, 1-methyl-5-oxo-N-((1-(1-phenylethyl)cyclobutyl)methyl)-4,5-dihydro-1H-1,2,4-triazole-3-carboxamide]	6.87	7.60	6.77
CC(c1ccccc1)C1(CNC(=O)c2nn(C)c(=O)[nH]2)CCC1 (single isomer, unassigned) [Example 27, 1-methyl-5-oxo-N-((1-(1-phenylethyl)cyclobutyl)methyl)-4,5-dihydro-1H-1,2,4-triazole-3-carboxamide]	5.49	6.25	5.70
O=C(NCC1(Cc2ccc(F)cc2F)CC12CC2)c1nccc(=O)[nH]1 (single isomer, unassigned) [Example 235]	6.79	7.65	7.31
Cn1nc(C(=O)NCC(C)(Cc2ccc(F)cc2F)C2CC2)[nH]c1=O (single isomer, unassigned) [Example 239, N-(2-cyclopropyl-3-(2,4-difluorophenyl)-2-methylpropyl)-1-methyl-5-oxo-4,5-dihydro-1H-1,2,4-triazole-3-carboxamide]	7.10	8.07	7.39
CC(CNC(=O)c1nccc(=O)[nH]1)(Cc1ccc(F)cc1F)C1CC1 (single isomer, unassigned) [Example 243, N-(2-cyclopropyl-3-(2,4-difluorophenyl)-2-methylpropyl)-6-oxo-1,6-dihydropyrimidine-2-carboxamide]	6.91	7.93	7.36
CC(CNC(=O)c1nccc(=O)[nH]1)(Cc1ccc(F)cc1F)C1CC1 (single isomer, unassigned) [Example 244, N-(2-cyclopropyl-3-(2,4-difluorophenyl)-2-methylpropyl)-6-oxo-1,6-dihydropyrimidine-2-carboxamide]	6.73	7.53	7.14
